# Reference: BigSolDB 2.1
structure (smiles),measurement,setting,value
O=C(/C=C/C=C/c1ccc2c(c1)OCO2)N1CCCCC1,solubility (mole fraction),"in acetone, 278.15 K",0.00485
same,solubility (mole fraction),"in acetone, 283.15 K",0.00589
same,solubility (mole fraction),"in acetone, 288.15 K",0.00706
same,solubility (mole fraction),"in acetone, 293.15 K",0.0083
same,solubility (mole fraction),"in acetone, 298.15 K",0.00973
same,solubility (mole fraction),"in acetone, 303.15 K",0.0113
same,solubility (mole fraction),"in acetone, 308.15 K",0.0129
same,solubility (mole fraction),"in acetone, 313.15 K",0.0146
same,solubility (mole fraction),"in acetone, 318.15 K",0.0166
same,solubility (mole fraction),"in ethanol, 278.15 K",0.00413
same,solubility (mole fraction),"in ethanol, 283.15 K",0.00503
same,solubility (mole fraction),"in ethanol, 288.15 K",0.00607
same,solubility (mole fraction),"in ethanol, 293.15 K",0.00714
same,solubility (mole fraction),"in ethanol, 298.15 K",0.00827
same,solubility (mole fraction),"in ethanol, 303.15 K",0.00966
same,solubility (mole fraction),"in ethanol, 308.15 K",0.0111
same,solubility (mole fraction),"in ethanol, 313.15 K",0.0126
same,solubility (mole fraction),"in ethanol, 318.15 K",0.0143
same,solubility (mole fraction),"in ethyl acetate, 278.15 K",0.00807
same,solubility (mole fraction),"in ethyl acetate, 283.15 K",0.0104
same,solubility (mole fraction),"in ethyl acetate, 288.15 K",0.0132
same,solubility (mole fraction),"in ethyl acetate, 293.15 K",0.0161
same,solubility (mole fraction),"in ethyl acetate, 298.15 K",0.0194
same,solubility (mole fraction),"in ethyl acetate, 303.15 K",0.0232
same,solubility (mole fraction),"in ethyl acetate, 308.15 K",0.0274
same,solubility (mole fraction),"in ethyl acetate, 313.15 K",0.0321
same,solubility (mole fraction),"in ethyl acetate, 318.15 K",0.0373
